Values belong to the compound of their own block, whether it stands above or below them.
Molecular target: T1, human GlyT-2 (Homo sapiens, UniProt Q9Y345)
T1 construct: expressed in transfected cells; elsewhere 'preferably QT-6 cells derived from quail fibroblasts'
T1 sequence (Q9Y345 1-797): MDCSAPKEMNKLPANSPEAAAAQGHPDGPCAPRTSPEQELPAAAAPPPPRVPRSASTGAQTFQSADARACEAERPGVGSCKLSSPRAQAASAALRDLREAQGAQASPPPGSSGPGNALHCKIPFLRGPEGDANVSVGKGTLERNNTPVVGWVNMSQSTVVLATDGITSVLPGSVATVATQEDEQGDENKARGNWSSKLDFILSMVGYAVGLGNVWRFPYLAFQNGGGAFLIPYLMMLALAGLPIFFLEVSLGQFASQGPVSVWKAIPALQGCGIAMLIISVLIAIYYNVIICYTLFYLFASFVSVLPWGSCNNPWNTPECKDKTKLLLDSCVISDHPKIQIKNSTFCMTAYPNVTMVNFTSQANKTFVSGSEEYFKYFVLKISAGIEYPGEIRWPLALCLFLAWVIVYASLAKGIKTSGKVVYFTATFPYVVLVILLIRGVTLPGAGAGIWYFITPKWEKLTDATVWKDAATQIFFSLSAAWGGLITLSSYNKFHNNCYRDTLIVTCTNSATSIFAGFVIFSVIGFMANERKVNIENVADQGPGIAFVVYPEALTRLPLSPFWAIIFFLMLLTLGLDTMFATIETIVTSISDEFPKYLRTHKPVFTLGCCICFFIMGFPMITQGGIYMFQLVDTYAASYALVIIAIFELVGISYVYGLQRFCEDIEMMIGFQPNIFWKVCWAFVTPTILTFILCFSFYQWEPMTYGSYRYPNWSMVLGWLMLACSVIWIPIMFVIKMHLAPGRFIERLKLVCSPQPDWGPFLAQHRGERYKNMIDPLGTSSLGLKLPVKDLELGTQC
Assay: Assay of transport via GlyT-2 transporters: [3H]glycine uptake by stably transfected cultured cells
Format: cell-based
Settings: cells stably transfected with human GlyT-2; 50 nM [3H]glycine; ten minutes at 37° C.; read-out: GlyT1 uptake IC50
Protocol: This example illustrates a method for the measurement of glycine uptake by transfected cultured cells.
Cells stably transfected with human GlyT-2 (the homolog of the rat GlyT-2 described by Liu et al., J. Biological Chemistry, 268, 1993:22802-22808) were washed twice with HEPES buffered saline (HBS). The cells were then incubated ten minutes at 37° C., after which a solution containing 50 nM [^3H]glycine (17.5 Ci/mmol) and either (a) no potential competitor, (b) […] or (c) a concentration of a candidate drug. A range of concentrations of the candidate drug was used to generate data for calculating the concentration resulting in 50% of the effect (e.g., the IC50's which are the concentration of drug inhibiting glycine uptake by 50%). The cells were then incubated another ten minutes at 37° C., after which the cells were aspirated and washed three times with ice-cold HBS. The cells were solubilized in scintillant, shaken for thirty minutes, and the radioactivity in the cells was counted using a scintillation counter. Data were compared between the same cells contacted and not contacted by the candidate agent.

Structure (SMILES): COc1ccc(NC(=S)N[C@H](CC(C)C)C(=O)Nc2c(C)cccc2C)c([N+](=O)[O-])c1 [E51.1*]
- IC50: 0.0908 µM

Structure (SMILES): COc1ccc(NC(=S)NC(C(=O)Nc2c(C)cccc2Cl)c2ccccc2)c([N+](=O)[O-])c1 (stereo not shown) [Example E29.1, N-(2-chloro-6-methylphenyl)-2-[3-(4-methoxy-2-nitrophenyl)-thioureido]-2-phenyl acetamide]
- IC50: 0.0228 µM

Structure (SMILES): COc1ccc(NC(=S)NC(CC(C)C)C(=O)Nc2c(C)cccc2C)c([N+](=O)[O-])c1 (stereo not shown) [Example E51.3, N-(2.6-dimethylphenyl)-2-[3-(4-methoxy-2-nitrophenyl)-thioureido]-4-methylpentanamide]
- IC50: 0.112 µM

Structure (SMILES): CCOc1ccc(NC(=S)NC(C(=O)Nc2ccccc2C)c2ccccc2)c([N+](=O)[O-])c1 (stereo not shown) [Example E4.3, N-(2-methylphenyl)-2-[3-(4-ethoxy-2-nitrophenyl)-thioureido]-2-phenyl acetamide]
- IC50: 0.172 µM

Structure (SMILES): COc1ccc(NC(=S)NC(C(=O)Nc2ccccc2C)c2ccccc2)c([N+](=O)[O-])c1 (stereo not shown) [Example E4.4, N-(2-methylphenyl)-2-[3-(2-nitro-4-methoxyphenyl)-thioureido]-2-phenyl acetamide]
- IC50: 0.0838 µM

Structure (SMILES): Cc1ccccc1NC(=O)[C@H](NC(=S)Nc1ccccc1[N+](=O)[O-])c1ccccc1 [Example E4.2]
- IC50: 0.0774 µM

The next lines start with the values.

- IC50: 0.182 µM
Structure (SMILES): Cc1cccc(C)c1NC(=O)C(NC(=S)Nc1ccc(OCCN(C)C)cc1[N+](=O)[O-])c1ccccc1 (stereo not shown) [Example E33.4, N-(2.6-dimethylphenyl)-2-[3-(4-(2-N,N-dimethylamino)ethoxy-2-nitrophenyl)-thioureido]-2-phenyl acetamide]

- IC50: 0.048 µM
Structure (SMILES): Cc1cccc(C)c1NC(=O)C(NC(=S)Nc1ccccc1S(=O)(=O)N(C)C)c1ccccc1 (stereo not shown) [Example E33.2, N-(2,6-dimethylphenyl)-2-[3-(2-N,N-dimethylsulphonamidophenyl)-thioureido]-2-phenyl acetamide]

- IC50: 0.0492 µM
Structure (SMILES): CCOc1ccc(NC(=S)NC(C(=O)Nc2c(C)cccc2C)c2ccccc2)c([N+](=O)[O-])c1 (stereo not shown) [Example E33.1, N-(2,6-dimethylphenyl)-2-[3-(4-ethoxy-2-nitrophenyl)-thioureido]-2-phenyl acetamide]

- IC50: 0.115 µM
Structure (SMILES): Cc1cccc(C)c1NC(=O)C(NC(=S)Nc1ccc(OCCN(C)C)cc1C(F)(F)F)c1ccccc1 (stereo not shown) [Example E33.8, N-(2.6-dimethylphenyl)-2-[3-(4-N,N-dimethylaminoethoxy-2-trifluoromethylphenyl)-thioureido]-2-phenyl acetamide]

- IC50: 0.0142 µM
Structure (SMILES): Cc1cccc(C)c1NC(=O)C(NC(=S)Nc1ccc(S(=O)(=O)N(C)C)cc1[N+](=O)[O-])c1ccccc1 (stereo not shown) [Example E33.5]

- IC50: 0.0344 µM
Structure (SMILES): COc1ccc(NC(=S)NC(C(=O)Nc2c(C)cccc2C)c2ccccc2)c([N+](=O)[O-])c1 (stereo not shown) [Example E33.6, N-(2,6-dimethylphenyl)-2-[3-(4-methoxy-2-nitrophenyl)-thioureido]-2-phenyl acetamide]

- IC50: 0.0522 µM
Structure (SMILES): COc1ccc(NC(=S)NC(C(=O)Nc2c(C)cccc2C(C)C)c2ccccc2)c([N+](=O)[O-])c1 (stereo not shown) [Example E28.1, N-(2-isopropyl-6-methylphenyl)-2-[3-(4-methoxy-2-nitrophenyl)-thioureido]-2-phenyl acetamide]

— patent US20040152740A1, “Arylglycine derivatives for use as glycine transport inhibitors” (NPS Allelix Corporation, priority 2002, published 2004)
